Among the data in patent publication US20070059364A1, “Active substance combination comprising a compound with npy receptor affinity and a compound with 5-ht6 receptor affinity” (Laboratorios Del Dr. Esteve S.A., priority 2003, published 2007) are melting point values, retold here.

Each structure is given as a SMILES string.

Turning to `Cl.O=C(CN1CCC(N2C(=O)OCc3ccccc32)CC1)Nc1ccccc1C(=O)c1ccccc1`, the melting point (usually the temperature, or range, at which the solid turns liquid) lay within 211 to 216 °C.

The compound `Cc1c(S(=O)(=O)Nc2ccc3c(ccn3CCN3CCCC3)c2)sc2ccc(Cl)cc12` [Example 18e, N-[1-(2-pyrrolidine-1-yl-ethyl)-1H-indole-5-yl]-5-chloro-3-methylbenzo[b]thiophene-2-sulfonamide] registered a melting point of 156 to 158 °C. The same measure for `Cc1cc2cc(NS(=O)(=O)c3ccc4ccccc4c3)ccc2n1CCN(C)C`: 199 to 200 °C; for `CN(C)CCn1ccc2cc(NS(=O)(=O)c3c(Cl)nc4sccn34)ccc21` [Example 11e, N-[1-(2-dimethylaminoethyl)-1H-indole-5-yl]-6-chloroimidazo[2,1-b]thiazole-5-sulfonamide]: 50 to 52 °C; for `O=S(=O)(Nc1ccc2ccn(CCN3CCCC3)c2c1)c1ccc(Oc2ccccc2)cc1` [Example 15f, 4-Phenoxy-N-(1-(2-(pyrrolidin-1-yl)ethyl)-1H-indol-6-yl)-benzenesulfonamide]: 59 to 62 °C. In the case of `Cl.O=C(CN1CCC(N2C(=O)OCc3ccccc32)CC1)Nc1ccccc1` it was 262 to 272 °C. In the case of `O=S(=O)(Nc1ccc2c(ccn2CCCN2CCCCC2)c1)c1ccc(Oc2ccccc2)cc1` [Example 49e, 4-phenoxy-N-(1-(3-(piperidin-1-yl)propyl)-1H-indol-5-yl)benzenesulfonamide] it was 64 to 66 °C; in that of `Cc1ccc2c(c1)COC(=O)N2C1CCN(CC(=O)Nc2ccc(C3CCCCC3)cc2)CC1.Cl`, 242 to 246 °C; in that of `CCN(CC)CCn1ccc2cc(NS(=O)(=O)c3ccc4ccccc4c3)ccc21`, 97 to 104 °C. As to `CN1CCC(c2c[nH]c3ccc(NS(=O)(=O)c4cccc5ccccc45)cc23)CC1.Cl` [Example 13c, N-[3-(1-methylpiperidin-4-yl)-1H-indol-5-yl]naphthalene-1-sulphonamide hydrochloride], the melting point is 212 °C (dec.). In the case of `CCN(CC)CCCc1c[nH]c2ccc(NS(=O)(=O)c3sc4ccc(Cl)cc4c3C)cc12` [Example 43c, N-[3-(3-diethylaminopropyl)-1H-indol-5-yl]-5-chloro-3-methylbenzo[b]thiophene-2-sulphonamide] it was 156 to 158 °C; in that of `CN(C)CCn1ccc2cc(NS(=O)(=O)c3csc4ccccc34)ccc21` [Example 42e, N-(1-(2-(dimethylamino)ethyl)-1H-indol-5-yl)benzo[b]thiophene-3-sulfonamide], 61 to 72 °C; in that of `CCN(CC)CCc1c[nH]c2ccc(NS(=O)(=O)c3cc(Cl)cc(Cl)c3)cc12` [Example 4c, N-[3-(2-diethylaminoethyl)-1H-indol-5-yl]-3,5-dichlorobenzenesulphonamide], 168 to 170 °C. In the case of `CCCN(CCC)CCc1c[nH]c2ccc(NS(=O)(=O)c3sc4ccc(Cl)cc4c3C)cc12` it was 90 to 95 °C.

Regarding `CN1CC=C(c2c[nH]c3ccc(NS(=O)(=O)c4cccc5ccccc45)cc23)CC1`, the melting point was 244 to 245 °C (dec.). The same measure for `Cc1cccc2c1N(C1CCN(CC(=O)Nc3ccc(C#N)cc3)CC1)C(=O)OC2.Cl`: 229 to 234 °C; for `CCN(CC)CCc1c[nH]c2ccc(NS(=O)(=O)c3c(Cl)nc4sccn34)cc12`: 197 to 198 °C; for `CN(C)CCc1c[nH]c2ccc(NS(=O)(=O)c3ccc(-c4ccccc4)cc3)cc12`: 184 to 186 °C. In the case of `Cl.O=C(CN1CCC(N2C(=O)OCc3ccccc32)CC1)Nc1cccc2c1-c1ccccc1C2=O` it was 270 to 273 °C; in that of `Cc1c(S(=O)(=O)Nc2ccc3[nH]cc(CN4CCN(C)CC4)c3c2)sc2ccc(Cl)cc12` [Example 19c, N-[3-(4-methylpiperazin-1-yl)methyl-1H-indol-5-yl]-5-chloro-3-methylbenzo[b]thiophene-2-sulphonamide], 230 °C (dec.); in that of `CCn1c2ccccc2c2cc(NC(=O)CN3CCC(N4C(=O)OCc5cc(C)ccc54)CC3)ccc21.Cl`, 247 to 252 °C. Consider `Cl.O=C(CN1CCC(N2C(=O)OCc3cc(Cl)ccc32)CC1)Nc1ccc(Cl)cc1`, for which the melting point was in the range of 279 to 282 °C. In the case of `CN(C)CCn1ccc2cc(NS(=O)(=O)c3cccc4ccccc34)ccc21` [Example 3e, N-[1-(2-dimethylaminoethyl)-1H-indole-5-yl]-naphthalene-1-sulfonamide] it was 179 to 181 °C. `Cl.O=C1c2ccccc2-c2cc(NC(=O)C(c3ccccc3)N3CCC(N4C(=O)OCc5ccccc54)CC3)ccc21` (centres unmarked) had a melting point of 247 to 249 °C.

The compound `O=S(=O)(Nc1ccc2c(ccn2CCCN2CCCCC2)c1)c1ccc(-c2ccccc2)cc1` [Example 47e, 4-phenyl-N-(1-(3-(piperidin-1-yl)propyl)-1H-indol-5-yl)benzenesulfonamide] came in with a melting point of 148 to 150 °C. In the case of `CC(C(=O)Nc1ccc2c(c1)-c1ccccc1C2=O)N1CCC(N2C(=O)OCc3ccccc32)CC1.Cl` (centres unmarked) it was 242 to 252 °C; in that of `Cl.O=C(CN1CCC(N2C(=O)OCc3ccccc32)CC1)Nc1ccc2c(c1)CCC2`, 230 to 231 °C; in that of `O=C(CN1CCC(N2C(=O)OCc3ccccc32)CC1)Nc1cccc2c1-c1ccccc1C2O` (centres unmarked), 209 to 210 °C. In the case of `Cc1ccc2c(c1)COC(=O)N2C1CCN(CC(=O)Nc2ccccc2C(F)(F)F)CC1` it was 169 to 173 °C. The same measure for `CCn1c2ccccc2c2cc(NC(=O)CN3CCC(N4C(=O)OCc5cccc(C)c54)CC3)ccc21.Cl`: 229 to 232 °C.

`O=C(CN1CCC(N2C(=O)OCc3ccccc32)CC1)Nc1ccc2c(c1)CCC2=O` returned a melting point of 206 to 209 °C. The same measure for `CN(C)CCn1ccc2ccc(NS(=O)(=O)c3cccc4ccccc34)cc21` [Example 3f, N-[1-(2-Dimethylaminoethyl)-1H-indol-6-yl]-naphthalene-1-sulfonamide]: 139 to 142 °C; for `CN1CCC(c2c[nH]c3ccc(NS(=O)(=O)c4ccc(Cl)s4)cc23)CC1` [Example 14c, N-[3-(1-methylpiperidin-4-yl)-1H-indol-5-yl]-5-chlorothiophene-2-sulphonamide]: 284 °C (dec.). In the case of `Cc1c(S(=O)(=O)Nc2ccc3[nH]cc(CCN4CCOCC4)c3c2)sc2ccc(Cl)cc12` it was 200 to 201 °C; in that of `Cc1cc2cc(NS(=O)(=O)c3cccc4ccccc34)ccc2n1CCN(C)C` [Example 34e, N-(1-(2-(dimethylamino)ethyl)-2-methyl-1H-indol-5-yl)-naphthalene-1-sulfonamide], 183 to 184 °C. In the case of `Cc1ccc2c(c1)COC(=O)N2C1CCN(CC(=O)Nc2ccc3c(c2)-c2ccccc2C3=O)CC1` it was 237 to 239 °C; in that of `CCCCN(CCCC)CCc1c[nH]c2ccc(NS(=O)(=O)c3cccc4ccccc34)cc12`, 111 to 113 °C; in that of `O=S(=O)(Nc1ccc2c(ccn2CCCN2CCCCC2)c1)c1ccc2ccccc2c1`, 92 to 108 °C. `CN(C)CCn1ccc2cc(NS(=O)(=O)c3ccc(Br)cc3)ccc21` [Example 22e, N-[1-(2-dimethylaminoethyl)-1H-indole-5-yl]-4-bromobenzenesulfonamide] showed a melting point of 114 to 117 °C. In the case of `O=S(=O)(Nc1ccc2[nH]cc(CCN3CCCC3)c2c1)c1cccc2ccccc12` it was 212 to 214 °C; in that of `Cc1cccc2c1N(C1CCN(CC(=O)Nc3ccccc3C(=O)c3ccccc3)CC1)C(=O)OC2.Cl`, 168 to 176 °C; in that of `CN(C)CCn1ccc2cc(NS(=O)(=O)c3ccccc3)ccc21`, 139 to 141 °C.

As to `CN1CC=C(c2cn(S(=O)(=O)C3CCCCC3)c3ccc(N)cc23)CC1` [Example 3h, 5-Amino-1-cyclohexanesulfonyl-3-(1-methyl-1,2,3,6-tetrahydropyridine-4-yl)-1H-indole], the melting point was 75 °C (dec.). As for `O=S(=O)(Nc1ccc2c(ccn2CCCN2CCCCC2)c1)c1cccc2c(Cl)cccc12` [Example 52e, 5-chloro-N-(1-(3-(piperidin-1-yl)propyl)-1H-indol-5-yl)naphthalene-1-sulfonamide], the melting point fell in the range of 92 to 96 °C.

`CCN(CC)CCc1c[nH]c2ccc(NS(=O)(=O)c3cccc4ccccc34)cc12` registered a melting point of 170 °C. In turn, `Cc1cccc2c1N(C1CCN(CC(=O)Nc3ccc4c(c3)C(O)c3ccccc3-4)CC1)C(=O)OC2.Cl` (centres unmarked) showed a melting point of 283 to 285 °C. For the compound `Cc1cccc2c1N(C1CCN(CC(=O)Nc3ccc4c(c3)-c3ccccc3C4O)CC1)C(=O)OC2.Cl` (centres unmarked), the melting point is 207 to 212 °C. The same measure for `Cc1ccc2c(c1)COC(=O)N2C1CCN(CC(=O)Nc2ccc(Oc3ccccc3)cc2)CC1.Cl`: 234 to 237 °C; for `CCCN(CCC)CCc1c[nH]c2ccc(NS(=O)(=O)c3cccc4ccccc34)cc12`: 76 to 80 °C. In the case of `Cl.O=C(CN1CCC(N2C(=O)OCc3cc(Cl)ccc32)CC1)Nc1ccc2c(c1)C(=O)c1ccccc1-2`, the melting point is > 300 °C (dec.).

Consider `CN(C)CCn1ccc2cc(NS(=O)(=O)c3cccc4cccnc34)ccc21` [Example 6e, N-[1-(2-dimethylaminoethyl)-1H-indole-5-yl]-quinoline-8-sulfonamide], for which the melting point was in the range of 161 to 164 °C.

Compound `Cc1cccc2c1COC(=O)N2C1CCN(CC(=O)Nc2ccc3oc4ccccc4c3c2)CC1` displayed a melting point of 204 °C. The same measure for `COc1ccc(S(=O)(=O)Nc2ccc3c(ccn3CCN(C)C)c2)cc1` [Example 23e, N-[1-(2-dimethylaminoethyl)-1H-indole-5-yl]-4-methoxybenzenesulfonamide]: 141 to 144 °C.

For the compound `CCN(CC)CCn1ccc2cc(NS(=O)(=O)c3csc4ccccc34)ccc21` [Example 41e, N-(1-(2-(diethylamino)ethyl)-1H-indol-5-yl)benzo[b]thiophene-3-sulfonamide], the melting point is 62 to 75 °C.

As to `O=C(CN1CCC(N2C(=O)OCc3cccc(Cl)c32)CC1)Nc1ccc2[nH]c3ccccc3c2c1`, the melting point came out at 180 °C. The same measure for `Cc1ccc2c(c1)COC(=O)N2C1CCN(CC(=O)Nc2ccc3c(c2)C(=O)c2ccccc2-3)CC1.Cl`: 281 to 285 °C.
